Data as given in PMC6616564, “Identification of ryuvidine as a KDM5A inhibitor” (Scientific Reports, 2019).
Read-outs that look alike come from different tables or passages of the source.

How the values were obtained:
Format in all cases: biochemical
[1] = target: T1, KDM5A (His-tagged KDM5A 1-797) (Homo sapiens, UniProt P29375); assay: AlphaScreen H3K4me3 demethylation
T1 construct: residues 1-797, C-terminally truncated, N-terminal His6 tag, Sf9 baculovirus, HisTrap purified
T1 sequence (P29375 1-797): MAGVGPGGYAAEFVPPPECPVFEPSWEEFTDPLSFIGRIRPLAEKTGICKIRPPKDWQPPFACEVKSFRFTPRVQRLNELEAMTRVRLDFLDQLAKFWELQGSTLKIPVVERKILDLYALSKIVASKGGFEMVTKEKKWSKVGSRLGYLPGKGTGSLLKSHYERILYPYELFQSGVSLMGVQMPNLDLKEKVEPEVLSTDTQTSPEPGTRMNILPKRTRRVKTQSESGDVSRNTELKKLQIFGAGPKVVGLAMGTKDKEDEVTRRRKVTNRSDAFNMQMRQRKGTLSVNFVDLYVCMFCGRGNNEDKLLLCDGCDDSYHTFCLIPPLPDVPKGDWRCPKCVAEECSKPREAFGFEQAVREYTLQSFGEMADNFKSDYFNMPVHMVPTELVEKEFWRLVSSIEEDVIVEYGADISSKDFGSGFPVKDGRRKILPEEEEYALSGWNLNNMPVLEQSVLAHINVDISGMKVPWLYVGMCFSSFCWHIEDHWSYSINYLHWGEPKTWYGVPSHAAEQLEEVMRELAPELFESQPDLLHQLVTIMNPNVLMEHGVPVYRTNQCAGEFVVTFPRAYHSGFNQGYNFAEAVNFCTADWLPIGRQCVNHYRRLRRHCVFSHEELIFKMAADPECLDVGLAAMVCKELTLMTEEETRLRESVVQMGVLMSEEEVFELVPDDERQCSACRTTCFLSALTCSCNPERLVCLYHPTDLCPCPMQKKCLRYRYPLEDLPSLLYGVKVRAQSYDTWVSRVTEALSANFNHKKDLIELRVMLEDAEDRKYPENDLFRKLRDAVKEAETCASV
Source text: AlphaScreen H3K4me3 demethylation on KDM5A (His-tagged KDM5A 1-797)

[2] = target: T2, LSD1 (His-tagged human full-length LSD1) (Homo sapiens, UniProt O60341); assay: MALDI-TOF MS demethylation assay; conditions: no inhibition at 50 μM; 30 μM H3K4me2 peptide, pH 7.5, 37 °C
T2 construct: gene KDM1A
Source text: MALDI-TOF MS demethylation assay on LSD1 (His-tagged human full-length LSD1)

[3] = target: T3, LSD2 (His-tagged ΔN25 human LSD2) (Homo sapiens, UniProt Q8NB78); assay: MALDI-TOF MS demethylation assay; conditions: no inhibition at 50 μM; 10 μM H3K4me2 peptide, pH 8.5, 37 °C
T3 construct: gene KDM1B
T3 sequence (Q8NB78 26-822): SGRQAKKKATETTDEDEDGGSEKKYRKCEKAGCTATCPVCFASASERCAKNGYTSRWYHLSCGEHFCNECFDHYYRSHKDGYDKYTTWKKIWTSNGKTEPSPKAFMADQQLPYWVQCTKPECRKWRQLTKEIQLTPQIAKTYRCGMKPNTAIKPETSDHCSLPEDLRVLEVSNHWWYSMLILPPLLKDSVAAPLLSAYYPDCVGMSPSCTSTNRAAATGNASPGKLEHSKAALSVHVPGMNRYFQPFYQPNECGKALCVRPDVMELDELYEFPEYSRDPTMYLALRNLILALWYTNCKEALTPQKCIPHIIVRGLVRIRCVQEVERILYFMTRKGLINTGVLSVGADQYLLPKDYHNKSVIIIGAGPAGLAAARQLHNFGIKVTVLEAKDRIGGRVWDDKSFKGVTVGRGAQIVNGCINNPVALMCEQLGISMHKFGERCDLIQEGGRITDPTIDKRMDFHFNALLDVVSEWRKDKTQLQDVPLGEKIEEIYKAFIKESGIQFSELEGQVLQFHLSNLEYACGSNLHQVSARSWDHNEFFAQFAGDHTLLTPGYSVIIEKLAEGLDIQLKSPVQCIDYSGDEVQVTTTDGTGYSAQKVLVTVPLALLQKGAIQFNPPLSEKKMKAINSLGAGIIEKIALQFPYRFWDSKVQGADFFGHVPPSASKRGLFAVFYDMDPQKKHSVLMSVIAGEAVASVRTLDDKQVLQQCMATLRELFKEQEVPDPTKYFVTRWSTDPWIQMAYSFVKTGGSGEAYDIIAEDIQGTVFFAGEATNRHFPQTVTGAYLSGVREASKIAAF
Source text: MALDI-TOF MS demethylation assay on LSD2 (His-tagged ΔN25 human LSD2)

[4] = target: T4, KDM5B (His-tagged KDM5B 1-769) (Homo sapiens, UniProt Q9UGL1); assay: MALDI-TOF MS demethylation assay
T4 construct: residues 1-769, C-terminally truncated, N-terminal His6 tag, Sf9 baculovirus, HisTrap purified
T4 sequence (Q9UGL1 1-769): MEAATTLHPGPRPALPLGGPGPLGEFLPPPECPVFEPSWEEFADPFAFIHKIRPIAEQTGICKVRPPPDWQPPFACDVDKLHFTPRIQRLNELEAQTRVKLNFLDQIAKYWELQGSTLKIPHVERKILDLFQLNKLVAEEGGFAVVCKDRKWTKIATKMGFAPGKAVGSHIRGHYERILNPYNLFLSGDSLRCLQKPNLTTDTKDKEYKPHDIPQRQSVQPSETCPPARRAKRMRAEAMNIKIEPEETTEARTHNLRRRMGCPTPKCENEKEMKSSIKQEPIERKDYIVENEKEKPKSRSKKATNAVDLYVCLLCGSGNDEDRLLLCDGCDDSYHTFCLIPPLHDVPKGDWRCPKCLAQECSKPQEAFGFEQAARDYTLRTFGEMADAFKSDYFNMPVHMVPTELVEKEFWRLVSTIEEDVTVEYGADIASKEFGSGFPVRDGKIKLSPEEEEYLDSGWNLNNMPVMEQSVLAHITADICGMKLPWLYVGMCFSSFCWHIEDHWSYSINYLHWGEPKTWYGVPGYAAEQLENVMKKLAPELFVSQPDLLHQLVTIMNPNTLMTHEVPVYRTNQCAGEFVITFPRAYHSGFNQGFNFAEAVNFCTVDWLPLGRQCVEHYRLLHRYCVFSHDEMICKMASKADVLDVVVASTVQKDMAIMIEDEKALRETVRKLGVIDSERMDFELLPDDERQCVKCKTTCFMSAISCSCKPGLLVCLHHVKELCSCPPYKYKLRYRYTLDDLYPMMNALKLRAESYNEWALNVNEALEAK
Source text: MALDI-TOF MS demethylation assay on KDM5B (His-tagged KDM5B 1-769)

[5] = target: T5, KDM5C (His-tagged KDM5C 1-839) (Homo sapiens, UniProt P41229); assay: MALDI-TOF MS demethylation assay
T5 construct: residues 1-839, C-terminally truncated, N-terminal His6 tag, Sf9 baculovirus, HisTrap purified
T5 sequence (P41229 1-839): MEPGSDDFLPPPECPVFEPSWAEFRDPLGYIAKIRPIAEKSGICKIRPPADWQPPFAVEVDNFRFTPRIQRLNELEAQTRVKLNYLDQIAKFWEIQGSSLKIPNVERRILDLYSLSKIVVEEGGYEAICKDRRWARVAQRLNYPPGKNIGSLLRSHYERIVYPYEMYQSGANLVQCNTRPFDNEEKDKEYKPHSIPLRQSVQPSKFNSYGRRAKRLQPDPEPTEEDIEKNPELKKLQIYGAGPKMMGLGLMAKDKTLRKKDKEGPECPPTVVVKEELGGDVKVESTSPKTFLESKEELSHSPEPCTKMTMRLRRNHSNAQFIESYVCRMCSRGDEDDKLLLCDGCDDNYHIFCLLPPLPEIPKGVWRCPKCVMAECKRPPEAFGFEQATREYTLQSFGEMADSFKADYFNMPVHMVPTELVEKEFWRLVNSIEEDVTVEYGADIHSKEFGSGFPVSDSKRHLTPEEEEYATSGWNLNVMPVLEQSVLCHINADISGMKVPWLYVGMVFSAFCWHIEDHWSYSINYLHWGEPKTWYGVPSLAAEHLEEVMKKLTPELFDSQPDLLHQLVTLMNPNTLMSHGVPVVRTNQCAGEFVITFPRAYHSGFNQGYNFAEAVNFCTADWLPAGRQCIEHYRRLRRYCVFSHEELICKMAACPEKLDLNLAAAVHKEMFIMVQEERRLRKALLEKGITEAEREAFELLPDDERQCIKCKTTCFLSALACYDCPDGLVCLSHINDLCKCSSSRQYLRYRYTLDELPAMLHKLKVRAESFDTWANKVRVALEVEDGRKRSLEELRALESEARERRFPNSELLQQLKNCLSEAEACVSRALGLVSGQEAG
Source text: MALDI-TOF MS demethylation assay on KDM5C (His-tagged KDM5C 1-839)

| SMILES | IC50 ([1]; read-out: IC50 (μM)^a) [µM] | further results |
| --- | --- | --- |
| CC1(C)C(=O)N=C2C1=C(O)C(=O)c1ccccc12 [BVT948] | 2.6 | – |
| CN(C)c1ccc2nc3ccc(=[N+](C)C)cc-3sc2c1 [Methylene Blue] | 1.1 | – |
| O=C1C(SCCO)=C(SCCO)C(=O)c2ccccc21 [NSC95397] | 0.055 | – |
| O=[N+]([O-])c1ccc(O)c2ncccc12 [Nitroxoline] | 5 | – |
| Nc1ccc2cc3ccc(N)cc3nc2c1 [Proflavine Hemisulfate] | 1.8 | – |
| Cc1ccc(NC2=CC(=O)c3sc(C)nc3C2=O)cc1 [Ryuvidine] | 1.4 | IC50 [2]: > 50 µM; IC50 [3]: > 50 µM; IC50 [4]: 0.026 ± 0.01 µM; IC50 [5]: 8.73 ± 1.8 µM |
| C[CH2][Hg][S]c1ccccc1C(=O)O [Thimerosal] | – | IC50 [1]: 0.13 µM |
| Cc1cc2nc3ccc(N(C)C)cc3[s+]c2cc1N [Tolonium Chloride] | 1.7 | – |
